Like-named read-outs stand apart in the source and are kept apart here.
Tests used:
replicon cells = assay: Cytotoxicity assay (CellTiter Blue); assay type: cell-based; conditions: TI=CC50/EC50
Experimental: (§1) The cytotoxicity of compounds of Table 1 and of the additional therapeutic agents used in the compositions and methods of the present invention can be measure using the assay described below.
(§2) Compounds are ordered 1 or 2 days before the experiment. Compounds and cells are prepared using the method described in Example 2 for the RHEPLUC assay (See FIG. 1) or combination study (See FIG. 2)
(§3) After 3 day incubation of cells with individual test compounds, cytotoxicity is determined using CellTiter Blue as described in the assay protocol below.
(§4) The CellTiter Blue solution (4 mL) is diluted with 1× Dulbecco's PBS (16 mL). 5 μL of the resulting solution is added to each well of the 384 well assay plate containing cells treated with compound for 72 hours. The plate is shaken for 10 seconds, then incubated in 5% CO2 at 37° C. for 1 hour. The plate is then shaken again for 10 seconds and the fluorescence is measured at excitation wavelength 540 nm and emission wavelength 590 nm.
(§5) NOTE: cells (all genotypes and mutants) are cultured in DMEM/10% FBS in the presence of G418. During the assay G418 is absent.
(§6) For cytotoxicity assays data is analyzed to obtain the CC50 of each compound tested alone and in combination. The analysis uses the average of 100% cytotoxicity (media only without cells) and 0% cytotoxicity (100% viability, 0.5% DMSO in the presence of cells) to calculate the percentage of compound cytotoxicity and CC50 using the following 4 parameter equation:
(§7) Wherein average low=100% cytotoxicity (media only) and average high=100% viability (0.5% DMSO).
(§8) CC50 values were calculated for a selected Polycyclic Heterocycle Derivative of the present invention (compound 2) and for […] first additional therapeutic agents of the present invention. The therapeutic index for the selected compounds was also calculated, wherein TI=CC50/EC50.

[1] = Cytotoxicity assay (CellTiter Blue); assay type: cell-based; conditions: CellTiter Blue, cells treated 72 hours
Experimental: as §1, §2, §3, §4, §5, §6, §7, §8

HCV replicon = assay: RHEPLUC assay (replicon luciferase, EC50 of single agents); assay type: cell-based, Hepatitis C virus (HCV); conditions: Hepatitis C virus
Experimental: The previously determined EC50 for each test compound is then placed in the middle of the combination study titration curve.
Test compounds are ordered at 4000× final concentration, one or two days before the assay, and are diluted 1/10 in DMSO (400× concentration). The diluted first test compound (400×) is distributed in a first low dead volume plate as described in FIG. 1. The diluted second test compound (400×) is distributed in a second low dead volume plate as described in FIG. 2.
To obtain maximum luciferase signal (0% inhibition control), 100% DMSO is added to the 200× test compound mix plate. For minimum luciferase signal (100% inhibition control), a known NS5A inhibitor (Compound A, EC50 of 0.01 nM, made as described in International Patent Application No. PCT/US2010/028653) is used at 1 nM final concentration. Accordingly, 6 μL of 200 nM Compound A is added to the 200× test compound mix plate (see FIG. 4).
On the day of the experiment, Complete growth media (10 μL) is added to all wells in a 384 well assay plate, then 150 nL per well from the test compound mix plate is added to the assay plate.
The cell monolayer is rinsed with pre-warmed PBS (˜37° C.), then pre-warmed trypsin (0.25%, ˜37° C.) is added and the cells are incubated for 2 to 5 minutes in 5% CO2 at 37° C. Complete growth media is then added, cells are mixed and counted, and then diluted in complete growth media to a final concentration of 1.0×10^5 cells/mL. […]
Bright-Glo Luciferase reagent is prepared as specified by the kit instructions and kept in the dark until the reagent has reached room temperature. […] The plate is allowed to incubate for 5 minutes at room temperature, then the plate is placed on a reader within 30 minutes after incubation is complete, and the luminescence is monitored at 0.5 seconds per well.
Using the RHEPLUC assay, EC50 values were calculated prior to initiation of combination studies for a selected Polycyclic Heterocycle Derivative of the present invention (compound 2) and for two first additional therapeutic agents of the present invention (compounds F5 and F7).

[2] = system: genotype 1a replicon cells; assay: 3-day cell-based HCV replicon assay (Taqman); conditions: Hepatitis C virus
Experimental: The replicon RNA level was measured using real time PCR (Taqman assay). […] EC50 was defined as the concentration of inhibitor necessary to achieve ΔCT=1 over the projected baseline; EC90 the concentration necessary to achieve ΔCT=3.2 over the baseline. Alternatively, to quantitate the absolute amount of replicon RNA, a standard curve was established by including serially diluted T7 transcripts of replicon RNA in the Taqman assay. All Taqman reagents were from PE Applied Biosystems. Such an assay procedure was described in detail in e.g. Malcolm et al., Antimicrobial Agents and Chemotherapy 50: 1013-1020 (2006).

[3] = system: genotype 1a replicon cells; assay: 15-day cell-based HCV replicon curing assay; set-up: species or system Hepatitis C virus (HCV); conditions: genotype 1a replicon cells treated 15 days
[4] = RHEPLUC assay, single agent, 72 hours incubation

Which “Therapeutic Index” value (replicon cells) does the source give for COC(=O)N[C@H](C(=O)N1CCC[C@H]1c1ncc(-c2ccc(-c3cc4cc(-c5cnc([C@@H]6CCCN6C(=O)[C@@H](NC(=O)OC)C(C)C)[nH]5)ccc4o3)cc2)[nH]1)C(C)C [Compound 2] here?
Its value is 2425000.

What about the CC50 at 72 h [1] of the same compound?
The CC50 at 72 h was 9700 nM.

What about the EC50 (HCV replicon; [4]) of the same compound?
The EC50 was 0.004 nM.

What about the EC90 ([2]; printed as 1×EC90, read-out: EC90) of the same compound?
The EC90 was 0.006 nM.

Which EC50 (HCV replicon; known NS5A inhibitor used as 100% inhibition control, assay of the value not stated) does the source give for COC(=O)NC(C(=O)N1CCC[C@H]1c1ncc(-c2ccc3oc(-c4ccc(-c5cnc([C@@H]6CCCN6C(=O)[C@H](NC(=O)OC)c6ccccc6)[nH]5)cc4)cc3c2)[nH]1)c1ccccc1 (stereo partly shown) [Compound A, reference compound] here?
The EC50 was 0.01 nM.

With C=C[C@@H]1C[C@]1(NC(=O)[C@@H]1C[C@@H]2CN1C(=O)[C@H](C(C)(C)C)NC(=O)O[C@@H]1C[C@H]1CCCCCc1nc3ccc(OC)cc3nc1O2)C(=O)NS(=O)(=O)C1CC1 [Compound F5] as the compound, how does the “Therapeutic Index” value (replicon cells) read?
Its value is 108865.

And the CC50 at 72 h [1]?
Its CC50 at 72 h is 35000 nM.

What about the “NS3 (amino acid residues 1-180) population sequence analysis, resistance mutations” value [3] of the same compound?
Its value is “low levels of D168G and P88A”.

And the EC50 (HCV replicon; [4])?
The EC50 was 0.322 nM.

And the EC90 ([2]; printed value is three times the EC90, read-out: 3×EC90)?
The EC90 was 7.5 nM.
